Experiments:
GFP-TRKB = assay: dSTORM/TIRF of GFP-TRKB clusters on MG87.TRKB cells; format: cell-based, mouse; conditions: BDNF 10 ng/ml, FLX 10 μM, CHOL 20 μM, KET 10 μM; 15 min
Description: (§1) For direct stochastic optical reconstruction microscopy (dSTORM) MG87.TRKB cells were grown on cell view 35mm dishes with glass bottom (Greiner) coated with poly-L-lysine (Sigma). […] Briefly, cells were fixed 24 hours post transfection with 4% PFA for 20 minutes, washed three times for 5 min with 1x PBS and incubated in blocking buffer (1% BSA, 0.1% gelatin, 5% goat serum, 0.1% Triton X-100 and 0.05% Tween-20 in PBS; all from Sigma) for 1 hour. The primary antibody against GFP (Abcam, #ab290) was diluted 1:100 and incubated overnight at +4°C, while the secondary antibody Alexa Fluor-conjugated goat-anti-rabbit 647 (Invitrogen) was diluted 1:500 and incubated at room temperature for 1 hour. The dishes were stored in +4°C in 1x PBS no longer than 48 hours before imaging.
(§2) During imaging, cells were maintained in blinking buffer (10% glucose, 0.07% cysteamine, 0.75 mg/ml glucose oxidase and 0.04 mg/ml catalase in 0.1 M Tris buffer, pH 7.8-8; all reagents from Sigma-Aldrich), which was freshly prepared and changed every hour. Imaging was performed in TIRF mode (TIRF angle 89.3 calibrated with ring-TIRF at least twice per sample) to specifically image the fluorophores at the plasma membrane. A GE DeltaVision OMX SR system (GE Healthcare) equipped with an Apo N 60x/1.49 oil objective and a sCMOS camera was used to acquire the images. The 640 nm diode laser was used at 100% of power to excite the Alexa 647 fluorophores while the 405 nm laser was adjusted until approximately 50% of power in order to maintain the blinking throughout the imaging session. For each cell, 35000 frames were acquired, and the localization map of single fluorophores was reconstructed with SoftWoRx 7.0 software (GE Healthcare). For the localization map, the first 1000 frames approximately were discarded and the reconstruction parameters were maintained identical for all the samples.
(§3) Reconstruction parameters: For the localization of all the blinking events in the dataset, the point spread function size factor was set at 1.550 with a local maximum factor of 0.05. Drift correction was adjusted dividing the frames into 20 groups. Tracking of the fluorophores was performed with a maximum localization precision of 100 nm without fiducial markers. The final localization map of the fluorophores identified was built with a reconstruction pixel size of 10 nm and localization precision set at 5 and 100 nm respectively for the minimum and the maximum, and a fluorophore persistence threshold set at 3 frames.
(§4) The analysis of the reconstructed images was performed in Fiji. Depending on the size of picture, 5 or 10 representative regions of interest (ROIs) of 2x1 μm were blindly chosen per cell and used for particle analysis of the TRKB-positive clusters. […]

GFP-TRKB.Y433F [1] = assay: dSTORM/TIRF of GFP-TRKB.Y433F clusters on MG87.TRKB cells; format: cell-based, mouse; conditions: BDNF 10 ng/ml, FLX 10 μM, CHOL 20 μM, KET 10 μM; 15 min
Description: as §1, §2, §3, §4

GFP-TRKB.Y433F [2] = assay: FRAP of GFP-TRKB.Y433F in dendritic spines of hippocampal neurons; format: cell-based, rat; conditions: BDNF 20 ng/mL, FLX 1 μM, KET 10 μM; 15 min
Description: For the fluorescence recovery after photobleaching (FRAP) experiments, E18 rat embryo hippocampal cells were plated onto glass coverslips coated with poly-L-lysine (Sigma-Aldrich) in 4-well cell culture plates at a density of 200.000 cells/well. The cultures were incubated at +37°C in serum-free Neurobasal medium (supplemented with 2% B27, 1% L-glutamine and 1% ampicillin) for approximately 2 weeks (DIV 14-16), renewing half of the growth media weekly. Then, they were transfected with Lipofectamine 2000 (Invitrogen) in order to overexpress GFP-tagged TRKB constructs (TRKB.WT or TRKB.Y433F). The cultures were incubated with the transfection mix (per well: 50ul neurobasal medium, 1ul Lipofectamine 2000, 1ug plasmid DNA) in serum-free media for 1.5 hours, followed by 3x medium washes and returned to the original growth medium after that. The cells were left at +37°C o/n to overexpress the constructs ([Koskinen et al., 2012]). Next day, FRAP was performed with a confocal microscope (Zeiss LSM 710, Carl Zeiss AG) adapted for live cell imaging with a chamber set at +37°C and 5%CO2 (Zeiss Temp Module system, Carl Zeiss AG). Coverslips with the cultured hippocampal neurons were carefully transferred to 35mm Petri dishes with warm HBSS medium without phenol red or serum to avoid sources of background fluorescence. After a 10 minutes adaptation period in the microscope chamber to avoid focus drift caused by temperature fluctuations of the stage and objective, dendritic shafts or spines (spine head diameter = ∼1um) were localized with a 63x/0.90 NA dipping water objective. Picture format was 512x512 pixels. The nominal speed to capture images was set to 9 (pixel dwell 3.15 μseconds, taking approximately 0.5 s to finish a scan), and the pinhole aperture was set to completely open to obtain a strong fluorescent signal ([Koskinen et al., 2012]; [Zheng et al., 2011]). Once a region of interest (ROI) was selected with a circle that contained the whole spine, it was bleached to establish the FRAP baseline. […]

CC(C)CCC[C@@H](C)[C@H]1CC[C@H]2[C@@H]3CC=C4C[C@@H](O)CC[C@]4(C)[C@H]3CC[C@]12C [CHOL, cholesterol]
size of clusters formed by wild-type GFP-TRKB at the plasma membrane (GFP-TRKB): increased the size of clusters | size of clusters of GFP-TRKB.Y433F at the plasma membrane (GFP-TRKB.Y433F [1]): not clusters of GFP-TRKB.Y433F mutants

CNCCC(Oc1ccc(C(F)(F)F)cc1)c1ccccc1 (centres unmarked) [FLX, fluoxetine]
size of clusters formed by wild-type GFP-TRKB at the plasma membrane (GFP-TRKB): increased the size of clusters | size of clusters of GFP-TRKB.Y433F at the plasma membrane (GFP-TRKB.Y433F [1]): not clusters of GFP-TRKB.Y433F mutants | fluorescence of GFP-TRKB.Y433F in dendritic spines after bleaching (GFP-TRKB.Y433F [2]): Neither BDNF, FLX, nor KET increased the fluorescence

CNC1(c2ccccc2Cl)CCCCC1=O (centres unmarked) [KET, ketamine]
size of clusters formed by wild-type GFP-TRKB at the plasma membrane (GFP-TRKB): increased the size of clusters | size of clusters of GFP-TRKB.Y433F at the plasma membrane (GFP-TRKB.Y433F [1]): not clusters of GFP-TRKB.Y433F mutants | fluorescence of GFP-TRKB.Y433F in dendritic spines after bleaching (GFP-TRKB.Y433F [2]): Neither BDNF, FLX, nor KET increased the fluorescence

B1: BDNF: brain-derived neurotrophic factor, TRKB ligand (protein, UniProt P23560 19-247, looked up)
Neurotrophic factor BDNF …: APMKEANIRGQGGLAYPGVRTHGTLESVNGPKAGSRGLTSLADTFEHVIEELLDEDQKVRPNEENNKDADLYTSRVMLSSQVPLEPPLLFLLEEYKNYLDAANMSMRVRRHSDPARRGELSVCDSISEWVTAADKKTAVDMSGGTVTVLEKVPVSKGQLKQYFYETKCNPMGYTKEGCRGIDKRHWNSQCRTTQSYVRALTMDSKKRIGWRFIRIDTSCVCTLTIKRGR
size of clusters formed by wild-type GFP-TRKB at the plasma membrane (GFP-TRKB): increased the size of clusters | size of clusters of GFP-TRKB.Y433F at the plasma membrane (GFP-TRKB.Y433F [1]): not clusters of GFP-TRKB.Y433F mutants | fluorescence of GFP-TRKB.Y433F in dendritic spines after bleaching (GFP-TRKB.Y433F [2]): Neither BDNF, FLX, nor KET increased the fluorescence

Source: publication PMC7938888, “Antidepressant drugs act by directly binding to TRKB neurotrophin receptors” (Cell, 2021)
